The text below walks through data of US20250368649A1, “TETRAHYDROPYRIDOPYRIMIDINE PAN-KRAS INHIBITORS” (Mirati Therapeutics, Inc., priority 2022, published 2025).

One assay has as its target KRas G12D (Homo sapiens, UniProt P01116, G12D). Put plainly: biochemical. Particulars: Binding to KRas (IC50 nM) G12D, TR-FRET displacement, KRas G12D.
Another assay has as its target KRas G12S (Homo sapiens, UniProt P01116, G12S). It is filed as binding. Particulars: TR-FRET displacement, read-out: Binding to KRas (IC50 nM) G12S.
Another assay has as its system H727 cells. Put plainly: Inhibition of KRas-mediated phosphorylation of ERK (Cisbio HTRF pERK), H727 cells. It is filed as cell-based. Particulars: Homo sapiens, NCI-H727, 3 h, 3 hr compound incubation, Cisbio pERK HTRF.
Another assay has as its target KRas WT (Homo sapiens, UniProt P01116). Nature of the assay: KRas binding assay (TR-FRET displacement), KRas WT. The note with it: TR-FRET displacement.
The next assay addresses KRas G12R (Homo sapiens, UniProt P01116, G12R). Nature of the assay: biochemical. Particulars: Binding to KRas (IC50 nM) G12R, TR-FRET displacement, KRas G12R.
The target of another assay is KRas G12C (Homo sapiens, UniProt P01116, G12C). Type of assay: binding. The note with it: TR-FRET displacement, read-out: Binding to KRas (IC50 nM) G12C.
Another assay concerns ASPC1 cells. Nature of the assay: Inhibition of KRas-mediated phosphorylation of ERK (Cisbio HTRF pERK), ASPC1 cells. Type of assay: cell-based. The note with it: Homo sapiens, ASPC1, 3 h, AsPC-1 cells; 3 hr compound incubation; Cisbio pERK HTRF.
A further assay has as its target KRas Q61H (Homo sapiens, UniProt P01116, Q61H). Put plainly: KRas binding assay (TR-FRET displacement), KRas Q61H. Particulars: TR-FRET displacement.
A further assay has as its target KRas G12V (Homo sapiens, UniProt P01116, G12V). Put plainly: biochemical. The note with it: Binding to KRas (IC50 nM) G12V, TR-FRET displacement, KRas G12V.
The target of a further assay is KRas G13D (Homo sapiens, UniProt P01116, G13D). Type of assay: binding. Particulars: TR-FRET displacement, read-out: Binding to KRas (IC50 nM) G13D.
The target of a further assay is KRas G12A (Homo sapiens, UniProt P01116, G12A). Type of assay: binding. The note with it: TR-FRET displacement, read-out: Binding to KRas (IC50 nM) G12A.
Chain of KRas G12A (P01116 1-169 isoform P01116-2 G12A): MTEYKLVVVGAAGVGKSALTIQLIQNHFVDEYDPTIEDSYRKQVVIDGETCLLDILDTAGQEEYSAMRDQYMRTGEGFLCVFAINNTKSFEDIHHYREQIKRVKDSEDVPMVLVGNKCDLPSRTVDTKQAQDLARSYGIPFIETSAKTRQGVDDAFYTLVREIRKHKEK

Chain of KRas Q61H (P01116 1-169 isoform P01116-2 Q61H): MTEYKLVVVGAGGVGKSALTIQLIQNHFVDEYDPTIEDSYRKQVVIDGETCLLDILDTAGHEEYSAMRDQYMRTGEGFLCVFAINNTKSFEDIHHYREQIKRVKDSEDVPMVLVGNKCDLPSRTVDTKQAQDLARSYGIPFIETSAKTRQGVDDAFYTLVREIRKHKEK
Chain of KRas WT (P01116 1-169 isoform P01116-2): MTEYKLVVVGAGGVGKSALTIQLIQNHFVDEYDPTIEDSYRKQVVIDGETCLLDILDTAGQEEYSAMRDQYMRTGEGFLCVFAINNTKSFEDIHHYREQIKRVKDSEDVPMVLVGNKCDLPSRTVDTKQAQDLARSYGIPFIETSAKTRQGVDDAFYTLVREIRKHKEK
Chain of KRas G12D (P01116 1-169 isoform P01116-2 G12D): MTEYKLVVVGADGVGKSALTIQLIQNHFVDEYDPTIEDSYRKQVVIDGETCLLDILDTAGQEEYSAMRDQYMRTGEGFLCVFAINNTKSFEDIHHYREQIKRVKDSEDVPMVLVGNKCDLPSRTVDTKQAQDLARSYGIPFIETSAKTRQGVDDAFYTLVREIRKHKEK
Chain of KRas G12C (P01116 1-169 isoform P01116-2 G12C): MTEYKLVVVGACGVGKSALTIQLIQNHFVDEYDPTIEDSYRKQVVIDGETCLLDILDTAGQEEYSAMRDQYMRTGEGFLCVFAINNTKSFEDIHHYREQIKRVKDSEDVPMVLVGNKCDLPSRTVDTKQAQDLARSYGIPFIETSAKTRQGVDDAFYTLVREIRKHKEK
Chain of KRas G12V (P01116 1-169 isoform P01116-2 G12V): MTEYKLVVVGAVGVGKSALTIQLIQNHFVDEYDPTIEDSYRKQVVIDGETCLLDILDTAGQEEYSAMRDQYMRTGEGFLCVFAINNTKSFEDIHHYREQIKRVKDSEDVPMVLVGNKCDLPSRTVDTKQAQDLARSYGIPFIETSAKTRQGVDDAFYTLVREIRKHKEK
Chain of KRas G13D (P01116 1-169 isoform P01116-2 G13D): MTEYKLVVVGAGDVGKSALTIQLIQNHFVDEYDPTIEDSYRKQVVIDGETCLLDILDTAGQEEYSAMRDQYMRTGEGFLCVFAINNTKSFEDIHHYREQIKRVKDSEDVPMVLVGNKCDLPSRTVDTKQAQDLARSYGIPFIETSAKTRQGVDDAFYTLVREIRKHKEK
Chain of KRas G12S (P01116 1-169 isoform P01116-2 G12S): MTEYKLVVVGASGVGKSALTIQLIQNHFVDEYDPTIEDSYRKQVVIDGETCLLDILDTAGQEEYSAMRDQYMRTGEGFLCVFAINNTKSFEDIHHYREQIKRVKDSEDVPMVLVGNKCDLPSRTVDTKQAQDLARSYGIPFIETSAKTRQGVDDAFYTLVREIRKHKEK
Chain of KRas G12R (P01116 1-169 isoform P01116-2 G12R): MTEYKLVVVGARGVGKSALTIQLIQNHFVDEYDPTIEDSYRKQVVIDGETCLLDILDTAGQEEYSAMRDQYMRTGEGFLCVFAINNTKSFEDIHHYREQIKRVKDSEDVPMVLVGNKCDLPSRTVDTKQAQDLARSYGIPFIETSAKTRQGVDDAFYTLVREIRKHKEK

As to `Cc1cc2[nH]ncc2c(N2CCc3c(nc(OCC45CCCN4CCC5)nc3N3CCCn4nc(C(=O)N(C)C)cc4C3)C2)c1C` [Example 451, 5-(7-(5,6-dimethyl-1H-indazol-4-yl)-2-((hexahydro-1H-pyrrolizin-7a-yl)methoxy)-5,6,7,8-tetrahydropyrido[3,4-d]pyrimidin-4-yl)-N,N-dimethyl-5,6,7,8-tetrahydro-4H-pyrazolo[1,5-a][1,4]diazepine-2-carboxamide], the IC50 was 11 nM at KRas G12D; 243 nM on KRas G12S; above 10000 nM in the assay with H727 cells; 777 nM on KRas WT; 62 nM on KRas G12R; 209 nM on KRas G12C. Moreover, the IC50 in the assay with ASPC1 cells is above 10000 nM; at KRas Q61H, 1060 nM; on KRas G12V, 26 nM; on KRas G13D it was 1160 nM; at KRas G12A it was 387 nM.

As for `Cc1cc2[nH]ncc2c(N2CCc3c(nc(OCC45CCCN4CCC5)nc3N3CCCC4(CNS(=O)(=O)N4)C3)C2)c1C` (stereo not drawn) [Example 452, 7-(7-(5,6-dimethyl-1H-indazol-4-yl)-2-((hexahydro-1H-pyrrolizin-7a-yl)methoxy)-5,6,7,8-tetrahydropyrido[3,4-d]pyrimidin-4-yl)-2-thia-1,3,7-triazaspiro[4.5]decane 2,2-dioxide], the IC50 was 4 nM on KRas G12D; 8 nM at KRas G12S; above 10000 nM in the assay with H727 cells; 7 nM at KRas WT; 9 nM at KRas G12R; 8 nM at KRas G12C. Moreover, the IC50 with ASPC1 cells came out at 3000 nM; on KRas Q61H, 7 nM; on KRas G12V, 6 nM; at KRas G13D, 8 nM; on KRas G12A it was 9 nM.

As to `Cc1cc2[nH]ncc2c(N2CCc3c(nc(OCC45CCCN4CCC5)nc3N3CCC[C@]4(C3)NC(=O)NC4=O)C2)c1C` [Example 455, (R)-7-(7-(5,6-dimethyl-1H-indazol-4-yl)-2-((hexahydro-1H-pyrrolizin-7a-yl)methoxy)-5,6,7,8-tetrahydropyrido[3,4-d]pyrimidin-4-yl)-1,3,7-triazaspiro[4.5]decane-2,4-dione], the IC50 on KRas G12D is 4 nM; at KRas G12S it was 4 nM; in the assay on H727 cells it was above 10000 nM; at KRas WT, 4 nM; on KRas G12R it was below 2 nM; on KRas G12C it was 3 nM. Further, the IC50 with ASPC1 cells is above 10000 nM; at KRas Q61H, 3 nM; on KRas G12V, 2 nM; on KRas G13D, 4 nM; on KRas G12A, 4 nM.

Consider `Cc1cc2[nH]ncc2c(N2CCc3c(nc(OCC45CCCN4CCC5)nc3N3CCCC4(CC(=O)N4)C3)C2)c1C` (stereo not drawn) [Example 456, 6-(7-(5,6-dimethyl-1H-indazol-4-yl)-2-((hexahydro-1H-pyrrolizin-7a-yl)methoxy)-5,6,7,8-tetrahydropyrido[3,4-d]pyrimidin-4-yl)-1,6-diazaspiro[3.5]nonan-2-one], for which the IC50 was 38 nM at KRas G12D; 33 nM on KRas G12S; above 10000 nM in the assay with H727 cells; 53 nM on KRas WT; 17 nM on KRas G12R; 32 nM on KRas G12C. Also, the IC50 was above 10000 nM with ASPC1 cells; 48 nM on KRas Q61H; 18 nM at KRas G12V; 59 nM at KRas G13D; 35 nM on KRas G12A.

Take `Cc1cc2[nH]ncc2c(N2CCc3c(nc(OCC45CCCN4CCC5)nc3N3CC4CC(O)C(C4)C3)C2)c1C` (stereo not drawn) [Example 457, 3-(7-(5,6-dimethyl-1H-indazol-4-yl)-2-((hexahydro-1H-pyrrolizin-7a-yl)methoxy)-5,6,7,8-tetrahydropyrido[3,4-d]pyrimidin-4-yl)-3-azabicyclo[3.2.1]octan-6-ol]: the IC50 is 3560 nM at KRas G12D; 1270 nM at KRas G12S; above 10000 nM in the assay on H727 cells; 1590 nM at KRas WT; 692 nM on KRas G12R; 1910 nM on KRas G12C. Also, the IC50 in the assay on ASPC1 cells is above 10000 nM; on KRas Q61H it was 2190 nM; on KRas G12V, 805 nM; on KRas G13D it was 1870 nM; at KRas G12A it was 1250 nM.

Turning to `Cc1cc2[nH]ncc2c(N2CCc3c(nc(OCC45CCCN4CCC5)nc3N3CC4C(=O)NC(=O)C4C3)C2)c1C` (stereo not drawn) [Example 458, 5-(7-(5,6-dimethyl-1H-indazol-4-yl)-2-((hexahydro-1H-pyrrolizin-7a-yl)methoxy)-5,6,7,8-tetrahydropyrido[3,4-d]pyrimidin-4-yl)tetrahydropyrrolo[3,4-c]pyrrole-1,3(2H,3aH)-dione], the IC50 was 48 nM on KRas G12D; 52 nM at KRas G12S; above 10000 nM in the assay on H727 cells; 143 nM on KRas WT; 145 nM on KRas G12R; 153 nM at KRas G12C. Further, the IC50 with ASPC1 cells is above 10000 nM; on KRas Q61H, 179 nM; at KRas G12V, 76 nM; on KRas G13D, 168 nM; on KRas G12A it was 148 nM.

In the case of `Cc1cc2[nH]ncc2c(N2CCc3c(nc(OCC45CCCN4CCC5)nc3N3CCCC4(C3)NC(=O)NC4=O)C2)c1C` (stereo not drawn) [Example 459, 7-(7-(5,6-dimethyl-1H-indazol-4-yl)-2-((hexahydro-1H-pyrrolizin-7a-yl)methoxy)-5,6,7,8-tetrahydropyrido[3,4-d]pyrimidin-4-yl)-1,3,7-triazaspiro[4.5]decane-2,4-dione], the IC50 was 16 nM at KRas G12D; 11 nM at KRas G12S; above 10000 nM in the assay with H727 cells; 10 nM at KRas WT; 11 nM on KRas G12R; 8 nM at KRas G12C. Besides, the IC50 in the assay with ASPC1 cells is above 10000 nM; at KRas Q61H, 8 nM; at KRas G12V it was 8 nM; on KRas G13D it was 9 nM; at KRas G12A, 11 nM.

As for `Cc1cc2[nH]ncc2c(N2CCc3c(nc(OCC45CCCN4CCC5)nc3N3CCOCC(C)(O)C3)C2)c1C` (stereo not drawn) [Example 460, 4-(7-(5,6-dimethyl-1H-indazol-4-yl)-2-((hexahydro-1H-pyrrolizin-7a-yl)methoxy)-5,6,7,8-tetrahydropyrido[3,4-d]pyrimidin-4-yl)-6-methyl-1,4-oxazepan-6-ol], the IC50 at KRas G12D turned out to be 67 nM; at KRas G12S it was 173 nM; in the assay with H727 cells, 5360 nM; at KRas WT, 137 nM; on KRas G12R it was 216 nM; on KRas G12C, 146 nM. In addition, the half-inhibitory concentration (IC50) in the assay with ASPC1 cells is 1620 nM; on KRas Q61H, 188 nM; on KRas G12V, 108 nM; at KRas G13D, 169 nM; on KRas G12A it was 142 nM.

For `Cc1cc2[nH]ncc2c(N2CCc3c(nc(OCC45CCCN4CCC5)nc3N3CCCC4(CNC(=O)N4)C3)C2)c1C` (stereo not drawn) [Example 461, 7-(7-(5,6-dimethyl-1H-indazol-4-yl)-2-((hexahydro-1H-pyrrolizin-7a-yl)methoxy)-5,6,7,8-tetrahydropyrido[3,4-d]pyrimidin-4-yl)-1,3,7-triazaspiro[4.5]decan-2-one], the half-inhibitory concentration (IC50) at KRas G12D is 11 nM; on KRas G12S, 23 nM; in the assay with H727 cells it was above 10000 nM; on KRas WT it was 23 nM; at KRas G12R, 22 nM; on KRas G12C it was 19 nM. Further, the IC50 in the assay on ASPC1 cells was above 10000 nM; on KRas Q61H it was 26 nM; at KRas G12V, 12 nM; at KRas G13D, 26 nM; on KRas G12A, 22 nM.
